Experimental data as given in US20230117205A1, “B7-H4 ANTIBODY-DRUG CONJUGATES FOR THE TREATMENT OF CANCER” (SEAGEN INC., priority 2021, published 2023).

Experiments:
[1] = target: T1, recombinant human B7-H4 protein (Homo sapiens, UniProt Q7Z7D3); assay: BLI binding to recombinant human B7-H4 (monovalent and bivalent formats); conditions: mAb compared with ADC
T1 construct: B7-H4 extracellular domain Phe29-Ala258 with a C-terminal 10-His tag
T1 sequence (Q7Z7D3 29-258): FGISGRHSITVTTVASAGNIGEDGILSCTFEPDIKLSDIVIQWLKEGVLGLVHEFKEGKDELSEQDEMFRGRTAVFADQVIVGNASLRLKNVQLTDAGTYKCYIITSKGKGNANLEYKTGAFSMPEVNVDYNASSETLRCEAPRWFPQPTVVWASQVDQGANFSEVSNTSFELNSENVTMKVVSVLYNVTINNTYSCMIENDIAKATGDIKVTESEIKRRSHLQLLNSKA

[2] = test system: SKBR3, MX-1, and 293T-B7-H4; assay: NK cell-mediated ADCC; assay type: cell-based, human; conditions: NK effector cells, 4 hours
Description: Antibodies directed to cell surface antigens can elicit direct killing of antibody-coated cells, including induction of ADCC.
Human PBMCs were thawed into pre-warmed R10+ Media (RPMI 1640 (Gibco #11875-093) with 10% HI-FBS (Gibco #16140-071), 1× sodium pyruvate (Gibco #11360-070), and 1× GlutaMax (Gibco #35050-061)) and then an EasySep NK isolation kit (StemCell #17955) was used to purify NK cells. Target tumor cells were lifted off using TrypLE Express (Gibco #12604-021) and then plated into a U-bottom plate (Falcon #353077) at 40,000 cells/well (50 μL/well) for MX-1 and 293T-B7-H4 (HEK 293T cells engineered to express human B7-H4) and 20,000 cells/well (50 μL/well) for SKBR3 cell line. […] (NOTE: actual starting concentration was 6000 ng/mL to account for the inherent 3× dilution of the assay.) Then 200,000 cells/well (50 μL/well) of isolated NK cells were plated into the U-bottom plate (effector: tumor ratios were as follows: NK:SKBR3 cells 10:1; NK:MX1 cells 5:1, NK:293T-B7-H4 cells 5:1). Appropriate controls included: positive control mAb and ADC and negative non-binding control mAb and ADC, NK cells only control, target cells only control, target cells maximum lysis control, and media only control. […] A CytoTox 96 Non-Radioactive Cytotoxicity Assay kit (Promega #G1780) was used to develop the signal, which was read using 490 nm wavelength on a SpectraMax 190 instrument.

[3] = test system: HCC1569 xenograft model; assay: HCC1569 xenograft, Study HCC1569-2; assay type: in vivo, NSG mice; conditions: 3 mg/kg, three weekly doses, i.p.
Experimental: Tumor volume was measured once or twice weekly until study day 71.
Female NSG mice were implanted with 1×10^6HCC1569 tumor cells in 25% Matrigel H C (Corning #354248) subcutaneously. Once tumor volumes reached 100 mm^3, mice were randomized into treatment groups of 5 mice each and dosed with 3 mg/kg of ADC every seven days for three total doses (q7dx3). Each mouse was treated with 10 mg/kg hIVIG (Grifolds) twenty-four hours prior to receiving each ADC dose. Tumor volumes were measured 1-3 times per week, and animals were euthanized when tumor volume reached 700-1000 mm^3. Stock concentrations of ADC were diluted to a desired concentration (with 0.01% Tween20 in PBS) and injected i.p. into each treatment group.

[4] = test system: B7-H4 expression on OVCAR3 tumors; assay: IHC of B7-H4 on treated OVCAR3 xenograft tumors; assay type: in vivo, SCID mice; conditions: OVCAR3 tumors after treatment
Experimental: Antigen retrieval was performed using a Decloaking Chamber NxGen Biocare and the 110° C. program with Diva Retrieval solution. Slides were stained on the IntelliPath Automated stainer per the following protocol: Remove hot containers from the decloaking chamber and rinse in deionized water. Place slides in TBST prior to adding to IntelliPath. Hydrate slides on stainer prior to automation Add 300 uL/slide Peroxidaze (Biocare #PX968) and incubate 10 minutes. Wash slides in TBST. Add 300 uL/slide Sniper block (Biocare #B5966) and incubate 10 minutes. Blot off blocking solution. Add 300 uL/slide primary antibody and incubate 1 hour. Wash slides twice in TBST. Add 300 uL/slide HRP polymer and incubate 30 minutes. Wash slides twice in TBST. Add 300 uL/slide DAB (Vector #sk-4103) and incubate 5 minutes. Wash in TBST. Add 300 uL/slide hematoxylin and incubate 2 minutes. Wash in deionized water. Dehydrate slides by placing them in the oven for 30 minutes. Place coverslip on slides. Images were analyzed using Halo image analysis software (Indica Labs). The H-score was calculated according to the following equation: (3×% Strong Signal)+(2×% Moderate Signal)+(Weak Signal). […]

In the case of “SGN-B7H4V: ADC of fully human IgG1 anti-B7-H4 mAb conjugated to monomethyl auristatin E (MMAE) via a protease-cleavable valine-citrulline linker (vedotin)”, the “binding affinities for hB7-H4” value [1] is reported as “similar”, the ADCC response [2] is reported as “comparable ADCC responses” and the “anti-tumor activity (tumor volume)” value [3] is reported as “robust tumor growth delay”. The “impact on tumor B7-H4 expression” value [4] was “did not have a significant impact”.
